According to patent US7291347B2, “Succinate salt of O-desmethyl-venlafaxine” (Wyeth, priority 2001, dated 2007):
Read-outs that look alike come from different tables or passages of the source. One block for each compound: values may come before it.

Tests used:
[1] = Aqueous solubility (UV spectrophotometry); type: physicochemical; settings: water, thermodynamic from solid
Protocol: The aqueous solubility (reported above) of Form I of ODV succinate was determined according to the following procedure. Materials • Spectrophotometer—Capable of isolating a bandwidth of 2 nm or less at the wavelength of maximum absorbance, and of measuring absorbances in the 0.0 to 1.0 range with a precision of 0.01. A Cary Model 219 spectrophotometer or equivalent is suitable. • Cells—Silica, 1 cm. • Filters—0.45 micron Nylon filters which are chemical resistant or equivalent • Bottles—Glass screw top bottles having a 15 mL or greater capacity. • Shaker—A lateral shaker, wrist shaker, or a vibrator which will not generate heat is suitable. A. For Non UV Absorbing Solvents • 1. To a bottle weigh an amount of sample equivalent to approximately 1½ times the solubility. • 2. […] Agitate the bottles at ambient room temperature for at least 16 hours. • 4. Obtain a clear filtrate layer by either centrifugation of filtration being careful to avoid evaporation. • 5. Quantitatively transfer the solution to a volumetric flask and dilute to volume with water. • 6. Blank the instrument for water. • 7. Make quantitative dilutions to arrive at a suitable concentration for measurement. […] Quantitatively transfer to a volumetric flask with the same solvent used in preparing the standard solution. • 6. Make dilutions as necessary to obtain a concentration suitable for quantitative measurement. […]

[2] = Physical stability of the crystalline form; type: physicochemical
[3] = In situ rat intestinal perfusion (site-specific absorption); type: in vivo; settings: for Peff Meloprolol: 20 μg/mL
Source text: The rat intestine perfusion technique is a direct way to measure the regional absorption properties of a test compound in the gastrointestinal tract. Rat intestinal permeability coefficient (Peff) can be used to predict human in vivo oral absorption of passively absorbed compounds. Fagerholm, M. Johansson, and […], “Comparison between permeability coefficients in rat and human jejunum”, Pharm. […] Meanwhile, some other characteristics such as formulable Maximum Absorbable Dose (MAD), FDA Biopharmaceutical Classification, etc. can also be estimated. […] Rats used in this study were Charles River CD males, ranging in weight from approximately 300-350 grams. Metoprolol (a well-absorbed and passively transported compound) was used as a standard and tested simultaneously along with the ODV compounds. […] All chemicals were of analytical grade. After each experiment, all the analytic assays were performed promptly. For isotope determinations, 0.5 mL of perfusate sample containing ^14C PEG-4000 and ^3H-mannitol was mixed with 5 mL of scintillation cocktail. Radioactivity was counted in a liquid scintillation counter (Wallac 1409). Glucose concentration was determined by the glucose oxidase method (Biochemistry Analyzer). Metoprolol and the ODV compounds were analyzed by HPLC-UV/Vis (HP-1100 with a diode-array detector), using a YMC AQ 120 μ, 5 μ, 150×4.6 mm column and step gradient mobile phase containing water/0.1% TFA and acetonitrile. The ODV compounds and metoroplol were detected at 226 and 272 nm UV wavelength, respectively. Blank perfusate was assayed to evaluate the interference at these chromatographic conditions. The perfusions were performed in three intestinal sections of anesthetized rats: duodenum-jejunum, ileum, and colon. The lengths of the segments were approximately 10-12 cm for small intestine segments and 5-6 cm for colon segments. An inflow cannula was inserted at the proximal end and an outflow cannula was inserted at the distal end. Perfusate was pumped through the segment at 0.19 mL/min, and collected at 20, 40, 55, 70, 85 and 100 minutes. […] The disappearance rates of ODV compound, metoprolol, and glucose were determined from each collection interval by comparing to the initial compound solution remaining in the syringe at the end of the 100 minutes. This is to correct for any losses due to binding to the syringe or tubing. Meanwhile, drug concentration in perfusate samples were corrected for water influx/efflux, which was computed, based on ^14C-PEG-4000 concentration changes. […] Values below this range would indicate tissue damage that allows passage of PEG-4000 outside of the perfused segment, while values above this range would indicate significant water movement out of the segment. Water movement across the gut wall was determined by calculation of net water fluid: Net Water Flux (NWF)=[(1-[…] where PEGout and PEGin are the amount of radioactivity (dpm) of ^14C-PEG-4000 in inlet and outlet sides of the perfused intestinal segment, respectively; Q is the flow rate of perfusate; and L is the length of perfused segment (cm). The presence of the ODV compound in the perfusate was determined by HPLC. The amount of drug present at each time point was corrected for water movement across the wall of the intestine: Cout,[…]) where Cout is the concentration of drug in outlet perfusate; Cout,corr is the concentration of drug in outlet perfusate corrected for water moving in or out of the segment, as determined by the recovery of ^14C-PEG-4000. Effective intestinal permcability, Peff (cm/sec), was determined by the following equation: […] Cin is the concentration of drug in inlet perfusate; 2 μrL is the inner surface area of the perfused segment, with r assumed to be 0.18 cm in the rat (see G. Amidon, […]. Crison. “A theoretical basis for a biopharmaceutic drug classification: The correlation of in vitro drug product dissolution and in vivo bioavailability.” Pharm. Res. 12, 1995, 413-420) and L the length of the perfused segment (cm). […]

[4] = test system: Reserpine-Induce Hypothermia; settings: i.p.; cited from earlier work
Norepinephrine reuptake = settings: in vitro; read-out: Inhibition of amine reuptake (IC50), Norepinephrine; cited from earlier work
Serotonin reuptake = settings: in vitro; read-out: Inhibition of amine reuptake (IC50), Serotonin; cited from earlier work
Dopamine reuptake = settings: in vitro; read-out: Inhibition of amine reuptake (IC50), Dopamine; cited from earlier work
Cholinergic = settings: at 1 uM; cited from earlier work
Adrenergic α = settings: at 1 uM; cited from earlier work
Opiate = settings: at 1 uM; cited from earlier work
[5] = Stability in perfusion buffer and jejunal fluids; type: in vitro ADME, rat; settings: for stability in blank perfusion buffer and jejunal fluids: pH 6.8, 37° C., up to 6 hours; for relative percentage remaining of HPLC peak area: 37° C.
Protocol: The stability of ODV succinate or fumarate in the solutions of blank perfusion buffer (Pβ), and jejunal fluids (perfusion buffer collected by washing the isolated jejunal segment, pH=6.8) was determined at 37° C. for up to 6 hours.

[6] = Bioavailability of O-desmethyl-venlafaxine in beagle dogs; type: in vivo; settings: male, dog, plasma, free ODV levels, mean (% CV); for bioavailability: read-out: Absolute Bioavailability (%)
Protocol: Prior to administration, the oral solution (25 mg/mL) was diluted to a concentration of 7.5 mg/mL with water. […] Six male beagle dogs with body weights ranging between 10.2 and 16.0 kg were used in this study. The dogs were housed and given free access to water and food. The six dogs were dosed in a 4 period study. In Period 1, the dogs received 1 mL of the intravenous solution. In Period 2, the dogs received 10 mL of the oral solution. In Period 3, the dogs received the tablet. In Period 4, the dogs received the capsule. There was a one week wash out period between the first two treatment periods and a one month wash out period between treatment periods 2 and 3. Between periods 3 and 4, there was a one week wash out period. For periods 1 and 2, all dogs were fasted overnight with free access to water and fed after the four-hour bleeding. […] Plasma was separated in a refrigerated centrifuge and stored at -70° C. Plasma samples were then assayed. Plasma O-desmethyl-venlafaxine concentrations were determined by the HPLC method using mass spectrometric detection described in Hicks, […]., Russel, […] high-performance liquid chromatographic method for the simultaneous determination of venlafaxine and O-desmethylvenlafaxine in biological fluids”, Ther. Drug Monit. 16:100-107 (1994), which is hereby incorporated by reference. […] O-desmethyl-venlafaxine-glucuronide levels were determined by subtracting the O-desmethyl-venlafaxine (separate extraction procedure without the use of β-glucuronidase and analyzed by HPLC-MS) concentrations from the total O-desmethyl-venlafaxine concentrations. Noncompartmental pharmacokinetic parameters were calculated from the individual dog plasma O-desmethyl-venlafaxine and O-desmethyl-venlafaxine-glucuronide concentration-time profiles. Area under the plasma concentration-time curves (AUC0-μ) values were calculated by the addition of AUCLast (AUCLast=the linear trapezoid rule from time zero to the last measurable plasma concentration, […]) and […]/lambda. The values for lambda were determined from the long-linear portion of the terminal slope of the plasma O-desmethyl-venlafaxine and O-desmethyl-venlafaxine-glucuronide concentration-time profile after the intravenous dose. […] The peak plasma concentration (Cmax) and the time to reach Cmax (tmax) were noted directly from the plasma concentration-time profiles. Absolute bioavailability was determined by comparing the dose normalized AUC0-μvalues following the intravenous administration. All levels reported as below limit of quantitation (BLQ) were assigned a value of zero for calculation purposes.

[7] = male, Charles River CD, rat, in vivo, 50 μg/mL, pH 6.8
[8] = po, 75 mg, Oral Solution (75 mg)

SMILES: CN(C)CC(c1ccc(O)cc1)C1(O)CCCCC1.O=C(O)CCC(=O)O (centres unmarked) [Form I, O-des-methyl-Venlafaxine succinate monohydrate]
solubility ([1]; at 25° C.): 32.2 mg/mL
physically stable at relative humidity [2]: 5-95%
physically stable up to (temperature) [2]: at least 105 °C

Peff Meloprolol ([3]; Colon, perfused together with ODV fumarate): 11 10^−5 cm/sec
Peff Meloprolol ([3]; Colon, perfused together with ODV succinate): 0.583 ± 0.087 10^−5 cm/sec
Peff Meloprolol ([3]; Ileum, perfused together with ODV fumarate): 53 10^−5 cm/sec
Peff Meloprolol ([3]; Ileum, perfused together with ODV succinate): 3.22 ± 0.07 10^−5 cm/sec
Peff Meloprolol ([3]; Jejunum, perfused together with ODV fumarate): 1.78 ± 0.93 10^−5 cm/sec
Peff Meloprolol ([3]; Jejunum, perfused together with ODV succinate): 2.50 ± 0.11 10^−5 cm/sec
SMILES: COCCc1ccc(OCC(O)CNC(C)C)cc1 (centres unmarked) [Meloprolol, Metoprolol, reference compound]

SMILES: CN(C)CC(c1ccc(O)cc1)C1(O)CCCCC1 (centres unmarked) [O-desmethylvenlafaxine, 1-[2-(dimethylamino)-1-(4-phenol)ethyl]-cyclohexanol]
Reversal of Reserpine-Induce Hypothermia (minimum effect) [4]: 3 mg/kg
IC50 (Norepinephrine reuptake): 1160 nM
IC50 (Serotonin reuptake): 180 nM
IC50 (Dopamine reuptake): 13400 nM
Affinity for Various Neuroreceptors (% inhibition), Cholinergic (Cholinergic): 7%
Affinity for Various Neuroreceptors (% inhibition), Adrenergic α (Adrenergic α): 0%
Affinity for Various Neuroreceptors (% inhibition), Opiate (Opiate): 7%

SMILES: CN(C)CC(c1ccc(O)cc1)C1(O)CCCCC1.O=C(O)/C=C/C(=O)O (centres unmarked) [ODV fumarate, reference compound]
stability in blank perfusion buffer and jejunal fluids [5]: no apparent degradation/metabolism
MAD predicted ([3]; rat, in vivo): about 440 mg
Peff as percentage of the succinate's Peff values ([3]; rat, in vivo): 27μ40
Peff values ([3]; rat, in vivo): 0.24-0.68 ×10^−5 cm/sec
in vivo Fa estimated ([3]; rat, in vivo): 33-45%

SMILES: CN(C)CC(c1ccc(O)cc1)C1(O)CCCCC1.O=C(O)CCC(=O)O (centres unmarked) [ODV succinate, O-desmethyl-venlafaxine succinate]
solubility ([1]; general statement): > 30 mg/mL
relative percentage remaining of HPLC peak area ([5]; Blank Perfusion Buffer, 0 hours): 100.0%
relative percentage remaining of HPLC peak area ([5]; Blank Perfusion Buffer, 2 hours): 99.9%
relative percentage remaining of HPLC peak area ([5]; Blank Perfusion Buffer, 3 hours): 100.3%
relative percentage remaining of HPLC peak area ([5]; Blank Perfusion Buffer, 6 hours): 99.9%
relative percentage remaining of HPLC peak area ([5]; Intestinal fluid (pH 6.8, total protein approx. 0.2 mg/ml), 0 hours): 100.0%
relative percentage remaining of HPLC peak area ([5]; Intestinal fluid (pH 6.8, total protein approx. 0.2 mg/ml), 2 hours): 99.6%
relative percentage remaining of HPLC peak area ([5]; Intestinal fluid (pH 6.8, total protein approx. 0.2 mg/ml), 3 hours): 99.8%
relative percentage remaining of HPLC peak area ([5]; Intestinal fluid (pH 6.8, total protein approx. 0.2 mg/ml), 6 hours): 100.1%
stability in blank perfusion buffer and jejunal fluids [5]: no apparent degradation/metabolism
Peff as percentage of metoprolol's Peff value [3, 7]: about 10%
Peff's ratio of duodenum-jejunum vs. ileum vs. colon [3, 7]: 1.00:1.90:0.07
human in vivo Fa predicted ([3]; rat, in vivo, 50 μg/mL, pH 6.8): 60-77%
AUC ([6]; iv, 25 mg, Intravenous Solution (25 mg)): 746 ng·h/mL
AUC ([6]; po, 75 mg, Capsule (75 mg)): 904 ng·h/mL
Cmax ([6]; po, 75 mg, Capsule (75 mg)): 465 ng/mL
Tmax ([6]; po, 75 mg, Capsule (75 mg)): 33 min
bioavailability ([6]; po, 75 mg, Capsule (75 mg)): 40%
AUC [6, 8]: 835 ng·h/mL
Cmax [6, 8]: 450 ng/mL
Tmax [6, 8]: 30 min
bioavailability [6, 8]: 37%
AUC ([6]; po, 75 mg, Tablet (75 mg)): 677 ng·h/mL
Cmax ([6]; po, 75 mg, Tablet (75 mg)): 115 ng/mL
Tmax ([6]; po, 75 mg, Tablet (75 mg)): 175 min
bioavailability ([6]; po, 75 mg, Tablet (75 mg)): 31%
